Assay results: PMC3446905, “Puerarin Suppresses Proliferation of Endometriotic Stromal Cells Partly via the MAPK Signaling Pathway Induced by 17ß-estradiol-BSA” (PLoS ONE, 2012)

Test system: T1, estrogen receptors (ERs; subtype not resolved)
T1 construct: endogenous receptors in whole endometriotic stromal cells (ESCs)
Assay: whole-cell competitive radioligand binding against [3H]-E2
Assay type: cell-based, Homo sapiens
Method: whole-cell competitive radioligand binding against [3H]-E2 on estrogen receptors (ERs; subtype not resolved) | puerarin also competed against the specific binding of [^3H]-E2 to ERs, and the IC50 of puerarin was determined

Structure (SMILES): O=c1c(-c2ccc(O)cc2)coc2c([C@@H]3O[C@H](CO)[C@@H](O)[C@H](O)[C@H]3O)c(O)ccc12 [puerarin]
- IC50: 870 nM
